Measurements published in patent publication US20250032477A1, “COMPOUNDS, PHARMACEUTICAL COMPOSITIONS, AND METHODS FOR THE TREATMENT, PREVENTION, OR MANAGEMENT OF HYPERPROLIFERATIVE DISORDERS” (VINCERX PHARMA GMBH, priority 2021, published 2025).
Counter-ions that a name gives are not always drawn. Like-named read-outs stand apart in the source and are kept apart here.

Key:
SUM149 [1] = assay: Cytotoxicity in vitro in the presence and absence of elastase (MTT); format: cell-based
Description: (§1) Cultivation of cells was performed according to standard procedures with the media recommended by the provider. The cells, in a total volume of 100 μL, were seeded in a 96-well plate with a white bottom (#3610). After a 24 h incubation period at 37° C. and […], the medium was exchanged by adding 90 μL fresh medium. The treatment started by adding the test compound in 10 μL of culture medium to the cells in triplicates. Concentrations ranging from 10^−5 M to 10^−13 M were chosen. Two identically treated sets of samples were prepared. One set was treated with the test compound alone, whereas to the second set the compound and 10 nM elastase was added followed by a 72 h incubation period at 37° C. and 5% CO2. The proliferation was detected using the MTT assay (ATCC). At the end of the incubation period the MTT reagent was added to all samples for 4 h. Lysis of the cells followed by addition of the detergent was done overnight. The formed dye was detected at 570 nm. The proliferation of untreated but otherwise identically handled cells was define as the […].

HT29 [2] = assay: as above; format: cell-based, human
Description: as §1

786-O [3] = assay: as above; format: cell-based, human
Description: as §1

NCI H292 [4] = assay: as above; format: cell-based, human
Description: as §1

HT29 [5] = assay: Cytotoxicity assay (Version 2), automated, AC50, with or without elastase; format: cell-based, human
Description: as §1
(§2) The Cytotoxicity assay (Version 2) was performed as above described. Some changes were applied as the assays were performed in an automated fashion and the IC50 values determination was changed. Here the change in metabolic activity of the cells, in percent, was calculated by normalization of the measured values to the absorbance values of medium containing wells without cells (=−100%) and the absorbance of the DMSO-treated cells (=0%). AC50 values (activity concentration at −50%) were determined by means of a 4 parameter Hill-fit using GeneData Screener software.

786-O [6] = assay: as above; format: cell-based, human
Description: as §1, §2

NCI H292 [7] = assay: as above; format: cell-based, human
Description: as §1, §2

SUM149 [8] = assay: as above; format: cell-based
Description: as §1, §2

[9] = read-out: SUM149 IC50 w elastase
[10] = read-out: 786-O IC50 w elastase
[11] = read-out: NCI H292 IC 50 w elastase

Row | SMILES | IC50 (SUM149 [1]; [9]) | IC50 (SUM149 [1]; read-out: SUM149 IC50 w/o) | IC50 (HT29 [2]; read-out: HT29 IC50 w elastase) | IC50 (HT29 [2]; read-out: HT29 IC50 w/o) | IC50 (786-O [3]; [10]) | IC50 (786-O [3]; read-out: 786-O IC50 w/o) | IC50 (NCI H292 [4]; [11]) | IC50 (NCI H292 [4]; read-out: NCI H292 IC 50 w/o) | other results
1 | CCCNC(=O)Nc1cccc(S(=O)(=O)Nc2cccc([C@@H](CC(=O)O)NC(=O)Nc3ccc(NC(=O)NCCOCCOCCOCCC(=O)N[C@@H](CC(=O)O)C(=O)N4CCC[C@H]4C(=O)N[C@H](C(=O)O[C@]4(CC)C(=O)OCc5c4cc4n(c5=O)Cc5c-4nc4cc(F)c(C)c6c4c5[C@@H](NC(=O)OCc4ccccc4)CC6)C(C)C)cc3)c2)c1 [Compound 3, (1S,9S)-1-{[(benzyloxy)carbonyl]amino}-9-ethyl-5-fluoro-4-methyl-10,13-dioxo-2,3,9,10,13,15-hexahydro-1H,12H-benzo[de]pyrano[3′,4′:6,7] indolizino[1,2-b]quinolin-9-yl N-(14-{4-[({(1R)-2-carboxy-1-[3-({3-[(propylcarbamoyl)amino]benzene-1-sulfonyl}amino)phenyl]ethyl}carbamoyl)amino]anilino}-14-oxo-4,7,10-trioxa-13-azatetradecanan-1-oyl)-L-alpha-aspartyl-L-prolyl-L-valinate] | 0.01 to 0.1 nM | 10 to 100 nM | 0.1 to 1 nM | > 100 nM | 0.1 to 1 nM | 10 to 100 nM | 0.01 to 0.1 nM | 1.1 to 10 nM | 
2 | CCCNC(=O)Nc1cccc(S(=O)(=O)Nc2cccc([C@@H](CC(=O)O)NC(=O)Nc3ccc(NC(=O)NCCN(C)CCN(C)CCN(C)CC(=O)N[C@@H](CC(N)=O)C(=O)N4CCC[C@H]4C(=O)N[C@H](C(=O)O[C@]4(CC)C(=O)OCc5c4cc4n(c5=O)Cc5cc6cc7c(cc6nc5-4)OCO7)C(C)C)cc3)c2)c1 [Compound 6, (7S)-7-ethyl-8,11-dioxo-7,8,11,13-tetrahydro-2H,10H-[1,3]dioxolo[4,5-g]pyrano[3′,4′:6,7] indolizino[1,2-b]quinolin-7-yl N-{2-[{2-[{2-[({4-[({(1R)-2-carboxy-1-[3-({3-[(propylcarbamoyl)amino]benzene-1-sulfonyl}amino)phenyl]ethyl}carbamoyl)amino]phenyl}carbamoyl)amino]ethyl}(methyl)amino]ethyl}(methyl)amino]ethyl}-N-methylglycyl-L-asparaginyl-L-prolyl-L-valinate] |  |  |  |  |  |  |  |  | IC50 (SUM149 [1]; SUM149 cells, with 10 nM elastase, 72 h, MTT, read-out: SUM149 IC50 w elastase): < 0.01 nM; IC50 (SUM149 [1]; SUM149 cells, without elastase, 72 h, MTT, read-out: SUM149 IC50 w/o): 0.1 to 1 nM; IC50 (HT29 [2]; HT29 cells, with 10 nM elastase, 72 h, MTT, read-out: HT29 IC50 w elastase): 0.01 to 0.1 nM; IC50 (HT29 [2]; HT29 cells, without elastase, 72 h, MTT, read-out: HT29 IC50 w/o): 1.1 to 10 nM; IC50 (786-O [3]; 786-O cells, with 10 nM elastase, 72 h, MTT, read-out: 786-O IC50 w elastase): 0.01 to 0.1 nM; IC50 (786-O [3]; 786-O cells, without elastase, 72 h, MTT, read-out: 786-O IC50 w/o): 1.1 to 10 nM; IC50 (NCI H292 [4]; NCI H292 cells, with 10 nM elastase, 72 h, MTT, read-out: NCI H292 IC 50 w elastase): 0.01 to 0.1 nM; IC50 (NCI H292 [4]; NCI H292 cells, without elastase, 72 h, MTT, read-out: NCI H292 IC 50 w/o): 1.1 to 10 nM
3 | CCCNC(=O)Nc1cccc(S(=O)(=O)Nc2cccc([C@H](CC(=O)O)NC(=O)Nc3ccc(NC(=O)NCCOCCOCCOCCC(=O)N[C@@H](CC(=O)O)C(=O)N4CCC[C@H]4C(=O)N[C@H](C(=O)O[C@]4(CC)C(=O)OCc5c4cc4n(c5=O)Cc5c-4nc4cc(F)c(C)c6c4c5[C@@H](NC(C)=O)CC6)C(C)C)cc3)c2)c1 [Compound 13, disodium (1S,9S)-1-acetamido-9-ethyl-5-fluoro-4-methyl-10,13-dioxo-2,3,9,10,13,15-hexahydro-1H,12H-benzo[de]pyrano[3′,4′:6,7]indolizino[1,2-b]quinolin-9-yl 1-[(2S)-2-(carboxylatomethyl)-17-{4-[({(1S)-2-carboxylato-1-[3-({3-[(propylcarbamoyl)amino]benzene-1-sulfonyl}amino)phenyl]ethyl}carbamoyl)amino]anilino}-4,17-dioxo-7,10,13-trioxa-3,16-diazaheptadecanan-1-oyl]-L-prolyl-L-valinate] | 0.01 to 0.1 nM | 1.1 to 10 nM | 0.1 to 1 nM | > 100 nM | 0.01 to 0.1 nM | 10 to 100 nM | 0.01 to 0.1 nM | 1.1 to 10 nM | 
4 | CCCNC(=O)Nc1cccc(S(=O)(=O)Nc2cccc([C@H](CC(=O)O)NC(=O)Nc3ccc(NC(=O)NCCOCCOCCOCCC(=O)N[C@@H](CC(=O)O)C(=O)N4CCC[C@H]4C(=O)N[C@H](C(=O)O[C@]4(CC)C(=O)OCc5c4cc4n(c5=O)Cc5cc6cc7c(cc6nc5-4)OCO7)C(C)C)cc3)c2)c1 [Compound 15, (7S)-7-ethyl-8,11-dioxo-7,8,11,13-tetrahydro-2H,10H-[1,3]dioxolo[4,5-g]pyrano [3′,4′:6,7]indolizino[1,2-b]quinolin-7-yl N-(14-{4-[({(1S)-2-carboxy-1-[3-({3-[(propylcarbamoyl)amino]benzene-1-sulfonyl}amino)phenyl]ethyl}carbamoyl)amino]anilino}-14-oxo-4,7,10-trioxa-13-azatetradecanan-1-oyl)-L-alpha-aspartyl-L-prolyl-L-valinate-bis sodium salt] | < 0.01 nM | 1.1 to 10 nM | 0.01 to 0.1 nM | 10 to 100 nM | 0.01 to 0.1 nM | 10 to 100 nM | 0.01 to 0.1 nM | 1.1 to 10 nM | 
5 | CC[C@@]1(O)C(=O)OCc2c1cc1n(c2=O)Cc2c-1nc1cc(F)c(C)c3c1c2[C@@H](N(C)C)CC3 [Compound 18, (1S,9S)-1-(dimethylamino)-9-ethyl-5-fluoro-9-hydroxy-4-methyl-1,2,3,9,12,15-hexahydro-10H,13H-benzo[de]pyrano[3′,4′:6,7]indolizino[1,2-b]quinoline-10,13-dione] |  |  |  |  |  |  |  |  | AC50 (HT29 [5]; Homo sapiens, HT-29, read-out: HT29 AC50 +elastase): 1.1 to 10 nM; AC50 (HT29 [5]; Homo sapiens, HT-29, read-out: HT29 AC50 −elastase): 11 to 100 nM; AC50 (786-O [6]; Homo sapiens, 786-0, read-out: 786-O AC50 +elastase): 11 to 100 nM; AC50 (786-O [6]; Homo sapiens, 786-0, read-out: 786-O AC50 −elastase): 11 to 100 nM; AC50 (NCI H292 [7]; Homo sapiens, NCI-H292, read-out: NCI H292 AC50 +elastase): 1.1 to 10 nM; AC50 (NCI H292 [7]; Homo sapiens, NCI-H292, read-out: NCI H292 AC50 −elastase): 1.1 to 10 nM; AC50 (SUM149 [8]; SUM149, read-out: SUM149 AC50 +elastase): 1.1 to 10 nM; AC50 (SUM149 [8]; SUM149, read-out: SUM149 AC50 −elastase): 1.1 to 10 nM
6 | CCCNC(=O)Nc1cccc(S(=O)(=O)Nc2cccc([C@@H](CC(=O)O)NC(=O)Nc3ccc(NC(=O)NCCOCCOCCOCCC(=O)N[C@@H](CC(=O)O)C(=O)N4CCC[C@H]4C(=O)N[C@H](C(=O)O[C@]4(CC)C(=O)OCc5c4cc4n(c5=O)Cc5c-4nc4cc(F)c(C)c6c4c5[C@@H](N(CC)CC)CC6)C(C)C)cc3)c2)c1 [Compound 19, (1S,9S)-1-(diethylamino)-9-ethyl-5-fluoro-4-methyl-10,13-dioxo-2,3,9,10,13,15-hexahydro-1H,12H-benzo[de]pyrano[3′,4′:6,7]indolizino[1,2-b]quinolin-9-yl N-(14-{4-[({(1R)-2-carboxy-1-[3-({3-[(propylcarbamoyl)amino]benzene-1-sulfonyl}amino)phenyl]ethyl}carbamoyl)amino]anilino}-14-oxo-4,7,10-trioxa-13-azatetradecanan-1-oyl)-L-alpha-aspartyl-L-prolyl-L-valinate] |  |  |  |  |  |  |  |  | AC50 (HT29 [5]; HT29 cells, Version 2, with elastase, activity concentration at −50%, read-out: HT29 AC50 +elastase): 11 to 100 nM; AC50 (HT29 [5]; HT29 cells, Version 2, without elastase, activity concentration at −50%, read-out: HT29 AC50 −elastase): > 100 nM; AC50 (786-O [6]; 786-O cells, Version 2, with elastase, activity concentration at −50%, read-out: 786-O AC50 +elastase): 1.1 to 10 nM; AC50 (786-O [6]; 786-O cells, Version 2, without elastase, activity concentration at −50%, read-out: 786-O AC50 −elastase): > 100 nM; AC50 (NCI H292 [7]; NCI H292 cells, Version 2, with elastase, activity concentration at −50%, read-out: NCI H292 AC50 +elastase): 11 to 100 nM; AC50 (NCI H292 [7]; NCI H292 cells, Version 2, without elastase, activity concentration at −50%, read-out: NCI H292 AC50 −elastase): > 100 nM; AC50 (SUM149 [8]; SUM149 cells, Version 2, with elastase, activity concentration at −50%, read-out: SUM149 AC50 +elastase): 1.1 to 10 nM; AC50 (SUM149 [8]; SUM149 cells, Version 2, without elastase, activity concentration at −50%, read-out: SUM149 AC50 −elastase): > 100 nM
